{"source": "patent US11040976B2", "about": "“Substrate selective inhibitors of insulin-degrading enzyme (IDE) and uses thereof” (President and Fellows of Harvard College, priority 2015, dated 2021)", "key": {"[1]": {"biological_target": "T1, IDE, substrate amylin (fp) peptide (Homo sapiens, UniProt P14735)", "T1 sequence (P14735 1-1019)": "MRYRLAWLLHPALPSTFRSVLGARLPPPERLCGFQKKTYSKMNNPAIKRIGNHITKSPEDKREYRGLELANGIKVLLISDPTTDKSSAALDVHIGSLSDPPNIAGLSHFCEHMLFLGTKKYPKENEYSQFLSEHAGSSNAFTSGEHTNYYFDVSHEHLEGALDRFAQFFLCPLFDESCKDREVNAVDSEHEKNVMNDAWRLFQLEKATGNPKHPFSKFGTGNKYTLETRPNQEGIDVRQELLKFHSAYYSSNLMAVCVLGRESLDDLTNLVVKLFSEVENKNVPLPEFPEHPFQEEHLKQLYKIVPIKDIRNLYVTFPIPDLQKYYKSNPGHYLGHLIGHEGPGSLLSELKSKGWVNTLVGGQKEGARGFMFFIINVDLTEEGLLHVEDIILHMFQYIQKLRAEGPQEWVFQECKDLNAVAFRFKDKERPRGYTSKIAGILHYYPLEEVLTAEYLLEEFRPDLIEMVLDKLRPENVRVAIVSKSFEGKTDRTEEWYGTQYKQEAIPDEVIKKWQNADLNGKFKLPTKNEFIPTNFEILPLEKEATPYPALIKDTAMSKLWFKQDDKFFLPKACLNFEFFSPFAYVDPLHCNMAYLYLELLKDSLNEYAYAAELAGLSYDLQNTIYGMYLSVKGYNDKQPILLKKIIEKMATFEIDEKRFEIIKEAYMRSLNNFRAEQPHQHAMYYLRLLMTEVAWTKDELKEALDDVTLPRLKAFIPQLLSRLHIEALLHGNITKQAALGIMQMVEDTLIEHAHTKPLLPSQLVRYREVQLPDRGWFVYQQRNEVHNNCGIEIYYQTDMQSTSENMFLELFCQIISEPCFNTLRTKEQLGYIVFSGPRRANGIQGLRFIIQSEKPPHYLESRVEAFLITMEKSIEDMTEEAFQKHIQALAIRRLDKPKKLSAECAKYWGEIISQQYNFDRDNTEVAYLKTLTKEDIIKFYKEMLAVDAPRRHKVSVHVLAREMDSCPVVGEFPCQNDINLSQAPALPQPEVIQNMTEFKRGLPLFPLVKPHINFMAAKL", "test": "IDE concentration dependence profile with fluorogenic amylin analog", "format": "biochemical", "conditions": "FIGS. 11B and 11C", "method": "In order to determine the behavior of the inhibitors with respect to amylin, a concentration dependence profile was measured for IDE in the presence of a specified concentration of inhibitor and a fluorogenic amylin analog. The amylin (fp) peptide sequence was KCNTATCATXRLANFLVHSSNNZGAILSSTNVGSNTY-NH2 (SEQ ID NO: 8). The residue marked as X is Lys-γN-anthrinilamide, and the residue marked as Z is 3-nitro-Tyr."}, "[2]": {"biological_target": "T2, IDE (R&D), substrate glucagon (Homo sapiens, UniProt P14735)", "T2 construct": "recombinant human IDE42-1019 (R&D Systems); purchased R&D", "T2 sequence (P14735 42-1019)": "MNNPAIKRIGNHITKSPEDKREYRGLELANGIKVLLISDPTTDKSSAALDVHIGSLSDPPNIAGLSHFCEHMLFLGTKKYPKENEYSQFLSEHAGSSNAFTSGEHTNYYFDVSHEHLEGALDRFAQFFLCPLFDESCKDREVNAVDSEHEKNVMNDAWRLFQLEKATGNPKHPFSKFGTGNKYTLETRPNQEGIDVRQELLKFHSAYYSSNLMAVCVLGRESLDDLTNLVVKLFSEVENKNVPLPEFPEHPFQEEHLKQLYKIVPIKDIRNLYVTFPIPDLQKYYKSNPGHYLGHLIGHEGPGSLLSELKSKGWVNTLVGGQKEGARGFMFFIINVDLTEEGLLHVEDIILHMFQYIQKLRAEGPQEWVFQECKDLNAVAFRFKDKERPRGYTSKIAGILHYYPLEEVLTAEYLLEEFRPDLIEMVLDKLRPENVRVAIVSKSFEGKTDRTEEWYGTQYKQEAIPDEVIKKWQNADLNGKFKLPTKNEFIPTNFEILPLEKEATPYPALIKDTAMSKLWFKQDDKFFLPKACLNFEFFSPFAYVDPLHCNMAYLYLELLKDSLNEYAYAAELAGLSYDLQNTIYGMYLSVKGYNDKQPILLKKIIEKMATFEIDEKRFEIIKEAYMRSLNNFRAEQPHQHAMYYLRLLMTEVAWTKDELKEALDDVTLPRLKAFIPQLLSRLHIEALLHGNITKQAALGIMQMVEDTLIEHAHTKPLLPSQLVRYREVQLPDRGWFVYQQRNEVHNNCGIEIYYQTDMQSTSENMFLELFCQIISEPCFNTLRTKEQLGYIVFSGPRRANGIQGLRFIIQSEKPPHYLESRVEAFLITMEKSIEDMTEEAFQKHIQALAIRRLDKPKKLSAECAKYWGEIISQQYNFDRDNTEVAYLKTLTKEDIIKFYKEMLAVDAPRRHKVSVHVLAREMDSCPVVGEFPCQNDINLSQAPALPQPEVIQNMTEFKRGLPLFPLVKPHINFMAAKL", "test": "HTRF assay for IDE-mediated degradation of glucagon", "format": "biochemical", "conditions": "compounds 67 μM, 0° C. for 10 minutes, versus DMSO alone, FIG. 5", "method": "A solution of 0.05 μg/mL IDE (R&D) in “Diluent #5” (CisBio, 24 μL) was transferred to a 200 μL tube strip, and combined with 1 μL of each inhibitor (10 mM in DMSO, or as a 3-fold dilution series). […] This procedure was optimized to result in ˜75% degradation of glucagon. The reaction was terminated by 1 μL of inhibitor Ii1 (5 μM) and chilled on ice. The remaining glucagon was quantified using 10 μL of the quenched enzymatic reaction using the sensitive-range protocol Homogeneous Time-Resolved FRET Glucagon assay (CisBio® 62GLCPEF, see FIG. 3) in 20 μL total volume according to the manufacturer's instructions (384 well-plate Greiner 784904 non-binding). Fluorescence was measured using a Tecan M1000Pro plate reader (excitation=340 nm, emission=665 and 620 nm, lag time=60 μs) according the assay manufacturer's recommendations. Blank wells and glucagon standard curve were included in the assay.\nFIG. 4 compares the determined endpoint for insulin degradation with of glucagon degradation for a DMSO control, 6bK at 10 μM, and exemplary compounds of the invention at concentrations of 67 μM.\nThe HTRF endpoint assay for insulin and glucagon was performed over a range of concentrations for several potential inhibitors and for 6bK."}}}
{"molecule": "Cc1cccc(-c2ccc([C@@H]3[C@@H](CO)N4CCCCN(S(=O)(=O)c5ccccc5C)C[C@@H]34)cc2)c1", "note": "[compound 297]", "values": [{"measurement": "selectivity for inhibiting degradation of amylin over glucagon", "setting": "[1]; amylin (fp) curve compared with HTRF glucagon curve", "result": "selectivity for inhibiting degradation of amylin over degradation of glucagon"}, {"measurement": "selectivity for inhibiting degradation of insulin over amylin and glucagon", "setting": "[1]; amylin (fp) curve compared with HTRF insulin and glucagon curves", "result": "selectivity for inhibiting degradation of insulin over degradation of amylin and glucagon"}, {"measurement": "initial rates of glucagon cleavage", "setting": "[2]", "result": "reduced"}]}
